Assay results reported in article PMC6690791 (Bioorganic & medicinal chemistry letters, 2019).
Where two headings read alike, the source gives them in different places.

Assays:
Type in all cases: biochemical
[1] = target: HCV genotype 1b NS3/4A protease (Hepatitis C virus genotype 1b, UniProt P26663); assay: fluorescence-based enzymatic assay, genotype 1b NS3/4A
R155K NS3/4A genotype 1b = R155K NS3/4A genotype 1b (Hepatitis C virus genotype 1b, UniProt P26663, R1181K); assay: enzymatic inhibition assay, drug-resistant mutant R155K of genotype 1b
[2] = target: HCV genotype 3a NS3/4A protease (Hepatitis C virus genotype 3a, UniProt Q81258); assay: enzymatic inhibition assay, genotype 3a NS3/4A
A156S NS3/4A genotype 1b = A156S NS3/4A genotype 1b (Hepatitis C virus genotype 1b, UniProt P26663, A1182S); assay: enzymatic inhibition assay, drug-resistant mutant A156S of genotype 1b
V36M NS3/4A genotype 1b = V36M NS3/4A genotype 1b (Hepatitis C virus genotype 1b, UniProt P26663, V1062M); assay: enzymatic inhibition assay, drug-resistant mutant V36M of genotype 1b

| SMILES | IC50 [1] | inhibitory activity (IC50) (R155K NS3/4A genotype 1b) | also measured |
| --- | --- | --- | --- |
| Cc1ccc(S(=O)(=O)Nc2ccccc2C(=O)Nc2nc3c(C)cc(C)cc3s2)cc1 [F0325–0086] | 2 to 5 µM |  |  |
| Cc1ccc(S(=O)(=O)Nc2ccccc2C(=O)Nc2nc3ccc4ccccc4c3s2)cc1 [F0325–0092] | 2 to 5 µM |  |  |
| Cc1ccc(S(=O)(=O)Nc2ccccc2C(=O)Nc2nc3c(ccc4ccccc43)s2)cc1 [F0325–0093] | 5 to 10 µM |  |  |
| Cc1ccc(S(=O)(=O)Nc2ccccc2C(=O)Nc2nc(-c3cc(Cl)ccc3Cl)cs2)cc1 [F0325–0125] | < 2 µM | did not retain activity |  |
| Cc1ccc(S(=O)(=O)Nc2ccccc2C(=O)Nc2nc3ccc4sc(C)nc4c3s2)cc1 [F0725–0019] | 2 to 5 µM |  |  |
| Cc1ccc(S(=O)(=O)Nc2ccccc2C(=O)Nc2nc3c(cc4c5c(cccc53)CC4)s2)cc1 [F0816–0111] | 2 to 5 µM | did not retain activity |  |
| Cc1ccc(S(=O)(=O)Nc2ccccc2C(=O)Nc2nc3c(Cl)ccc(Cl)c3s2)cc1 [F1813–0710] | < 2 µM | maintains its activities | IC50 [2]: 14 µM; inhibitory activity (IC50) (A156S NS3/4A genotype 1b): maintains its activities; inhibitory activity (IC50) (V36M NS3/4A genotype 1b): maintains its activities |
| Cc1ccc(S(=O)(=O)Nc2ccccc2C(=O)Nc2nc3c(C)ccc(Cl)c3s2)cc1 [F1813–0711] | 5 to 10 µM | did not retain activity |  |
| Cc1ccc(S(=O)(=O)Nc2ccccc2C(=O)Nc2nc3c(Br)cccc3s2)cc1 [F1822–0567] | 10 to 100 µM |  |  |
| Cc1c(Cl)cccc1NC(=O)Cc1csc(NS(=O)(=O)c2ccccc2)n1 [F2322–0877] | 5 to 10 µM |  |  |
| Cc1cc(NC(=O)Cc2csc(NS(=O)(=O)c3ccccc3)n2)ccc1Br [F2322–0885] |  |  | IC50 ([2]; genotype 3a NS3/4A): did not have any effect |
| CSc1cccc(NC(=O)Cc2csc(NS(=O)(=O)c3ccccc3)n2)c1 [F2322–0904] | 5 to 10 µM |  |  |
| CSc1cccc2sc(NC(=O)c3ccccc3NS(=O)(=O)c3ccc(C)cc3)nc12 [F2730–0247] | 10 to 100 µM |  |  |
